In patent US6011032A, “Heterocyclic compounds for treating myocardial ischemia” (Pierre Fabre Medicament, priority 1995, dated 2000):
Structures can show the parent of a compound that is named as a salt.

Experiments:
isolated rat left atrium = test: Inhibition of contraction of isolated rat left atrium by veratrine; assay type: cell-based
Description: (§1) The compounds of the present invention of formula I and the therapeutically acceptable salts thereof have advantageous pharmacological properties. These derivatives are active on cardiomyocytes by inhibiting the diastolic contraction induced by veratrine in isolated rat left atrium. These compounds are also active in vivo during reinfusion ischemia in anaesthetized rabbits: they inhibit the electrical disturbances in the ECG caused by the reinfusion ischemia without any appreciable hemodynamic effect and are not cardiac depressors. Such compounds are useful for preventive or curative purposes in the treatment of coronaropathies and cardiac and cerebral ischemia in all their forms and in the treatment of atherosclerosis.
Inhibition of contraction of isolated rat left atrium by veratrine was carried out according to the technique of Le Grand et al. (Naunyn--Schmiedeberg's Arch Phazmacol (1993) 348 pp. 184-190). The results are given in the table below, in which the IC50 values are expressed in micromoles for certain compounds, by way of non-limiting examples: […]

anaesthetized rabbits = test: Reinfusion ischemia in anaesthetized rabbits (iv); assay type: in vivo, rabbit; conditions: 0.16 mg/kg iv
Description: as §1
Compounds of the present invention are also active via the venous route in the test of reinfusion ischemia in anaesthetized rabbits according to the method of Verscheure et al. (Fundam Clin Pharmacol (1993) 7, 385). The results for the compounds of Examples 1, 2, 11 and 15 are given in the table below by way of non-limiting example: […]

CN(C1=Nc2ccccc2CS1)C1CCN(CC(O)COc2ccc(F)cc2)CC1.Cl.Cl (centres unmarked) [Example 15, N-Methyl-N-[1-[2-hydroxy-3-(4-fluorophenoxy)propyl]-piperid-4-yl]-4H-3,1-benzothiazin-2-amine dihydrochloride]
IC50 (isolated rat left atrium): 320 nM | % arterial pressure variation (anaesthetized rabbits): +5% | % heart rate variation (anaesthetized rabbits): 0% | % inhibition ST segment (anaesthetized rabbits): 90% | Number of arrythmias under reinfusion (anaesthetized rabbits): 1/5

CN(C1=Nc2ccccc2CS1)C1CCN(CCCOc2ccc(F)cc2)CC1.O=C(O)/C=C\C(=O)O [Example 2, N-Methyl-N-[1-[3-(4-fluorophenoxy)propyl]piperid-4-yl]-4H-3,1-benzothiazin-2-amine hydrogen maleate]
% arterial pressure variation (anaesthetized rabbits): +4% | % heart rate variation (anaesthetized rabbits): -3% | % inhibition ST segment (anaesthetized rabbits): 76% | Number of arrythmias under reinfusion (anaesthetized rabbits): 1/5

CC(C)NCC(O)COc1ccc(CC(N)=O)cc1 (centres unmarked) [Atenolol, reference compound]
% arterial pressure variation (anaesthetized rabbits): -9% | % heart rate variation (anaesthetized rabbits): -13% | % inhibition ST segment (anaesthetized rabbits): 64% | Number of arrythmias under reinfusion (anaesthetized rabbits): 4/6

CN(c1nc2ccccc2s1)C1CCN(CCCCOc2ccc(F)cc2)CC1 [R 56865, N-(1-(4-(4-fluorophenoxy)butyl)piperid-4-yl)-N-methyl-2-benzothiazolamine, reference compound]
IC50 (isolated rat left atrium): 250 nM

CN(C1=Nc2ccccc2CS1)C1CCN(CCCCOc2ccc(F)c(F)c2)CC1 [Example 11, N-Methyl-N-[1-[4-(3,4-difluorophenoxy)butyl]piperid-4-yl]-4H-3,1-benzothiazin-2-armine hydrogen maleate]
% arterial pressure variation (anaesthetized rabbits): +3% | % heart rate variation (anaesthetized rabbits): -1% | % inhibition ST segment (anaesthetized rabbits): 71% | Number of arrythmias under reinfusion (anaesthetized rabbits): 1/5

CN(C1=Nc2ccccc2CS1)C1CCN(CCCCOc2ccc(F)cc2)CC1.O=C(O)/C=C\C(=O)O [Example 1, N-Methyl-N-[1-[4-(4-fluorophenoxy)butyl]piperid-4-yl]-4H-3,1-benzothiazin-2-amine hydrogen maleate]
IC50 (isolated rat left atrium): 150 nM | % arterial pressure variation (anaesthetized rabbits): +6% | % heart rate variation (anaesthetized rabbits): +3% | % inhibition ST segment (anaesthetized rabbits): 76% | Number of arrythmias under reinfusion (anaesthetized rabbits): 3/5

CN(c1nc2ccccc2s1)C1CCN(CC(O)COc2ccc(F)cc2)CC1 (centres unmarked) [Sabeluzole, N-(1-(2-hydroxy-3-(4-fluorophenoxy)propyl)piperid-4-yl)-N-methyl-2-benzothiazolamine, reference compound]
IC50 (isolated rat left atrium): 5100 nM | % arterial pressure variation (anaesthetized rabbits): 2% | % heart rate variation (anaesthetized rabbits): -5% | % inhibition ST segment (anaesthetized rabbits): 84% | Number of arrythmias under reinfusion (anaesthetized rabbits): 1/5

COc1ccc([C@@H]2Sc3ccccc3N(CCN(C)C)C(=O)[C@@H]2OC(C)=O)cc1 [Diltiazem, reference compound]
% arterial pressure variation (anaesthetized rabbits): -27% | % heart rate variation (anaesthetized rabbits): -5% | % inhibition ST segment (anaesthetized rabbits): 61% | Number of arrythmias under reinfusion (anaesthetized rabbits): 0/6
